Article PMC9709698 (Journal of Molecular Structure, 2022)

What was measured:
[1] = test system: NRC-03-nhCoV; assay: Antiviral activity; type: cell-based, SARS-CoV-2; conditions: CC50 Vero-E6 / IC50 NRC-03-nhCoV
[2] = test system: SARS-CoV-2; assay: Plaque infectivity reduction assay; type: cell-based; conditions: for inhibition at 62.5 µM: Severe acute respiratory syndrome coronavirus 2, read-out: Virus inhibition% Adsorption, 62.5 µM; for inhibition at 125 µM: Severe acute respiratory syndrome coronavirus 2, read-out: Virus inhibition% Adsorption, 125 µM

O=C(CSc1nc2c(c(=O)[nH]1)CCCC2)NNC(=O)c1ccccc1Br [Compound 18g, 2-Bromo-N'-(2-((4-oxo-3,4,5,6,7,8-hexahydroquinazolin-2-yl)thio)acetyl)benzohydrazide]
SI (selectivity index) [CC50/IC50] [1]: 5.23

O=C(CSc1nc2c(c(=O)[nH]1)CCCC2)Nc1cccc(C(=O)O)c1 [Compound 12b, 3-(2-((4-Oxo-3,4,5,6,7,8-hexahydroquinazolin-2-yl)thio)acetamido)benzoic acid]
SI (selectivity index) [CC50/IC50] [1]: 0.98

O=C(CSc1nc2c(c(=O)[nH]1)CCCC2)NNC(=O)c1ccc(Cl)cc1 [Compound 18f, 4-Chloro-N'-(2-((4-oxo-3,4,5,6,7,8-hexahydroquinazolin-2-yl)thio)acetyl)benzohydrazide]
SI (selectivity index) [CC50/IC50] [1]: 16.04 | Virus inhibition% Virucidal ([2]; 125 µM): 53.3 ± 3.35% | inhibition at 62.5 µM [2]: 13.3 ± 3.35% | inhibition at 125 µM [2]: 20 ± 3.3%

O=C(CSc1nc2ccccc2c(=O)[nH]1)NNC(=O)c1ccccc1Cl [Compound 17e, 2-Chloro-N'-(2-((4-oxo-3,4-dihydroquinazolin-2-yl)thio)acetyl)benzohydrazide]
SI (selectivity index) [CC50/IC50] [1]: 0.24

O=C(CSc1nc2c(c(=O)[nH]1)CCCC2)Nc1ccccc1C(=O)O [Compound 12a, 2-(2-((4-Oxo-3,4,5,6,7,8-hexahydroquinazolin-2-yl)thio)acetamido)benzoic acid]
SI (selectivity index) [CC50/IC50] [1]: 2.5

O=C(CSc1nc2c(c(=O)[nH]1)CCCC2)NNC(=O)c1ccccc1 [Compound 18a, N'-(2-((4-oxo-3,4,5,6,7,8-hexahydroquinazolin-2-yl)thio)acetyl)benzohydrazide]
SI (selectivity index) [CC50/IC50] [1]: 1.68

Cc1ccc(C(=O)NNC(=O)CSc2nc3ccccc3c(=O)[nH]2)cc1 [Compound 17b, 4-Methyl-N'-(2-((4-oxo-3,4-dihydroquinazolin-2-yl)thio)acetyl)benzohydrazide]
SI (selectivity index) [CC50/IC50] [1]: 2.14

O=C(CSc1nc2ccccc2c(=O)[nH]1)Nc1ccccc1C(=O)O [Compound 11a, 2-(2-((4-Oxo-3,4-dihydroquinazolin-2-yl)thio)acetamido)benzoic acid]
SI (selectivity index) [CC50/IC50] [1]: 4.3

O=C(CSc1nc2c(c(=O)[nH]1)CCCC2)NNC(=O)c1ccccc1Cl [Compound 18e, 2-Chloro-N'-(2-((4-oxo-3,4,5,6,7,8-hexahydroquinazolin-2-yl)thio)acetyl)benzohydrazide]
SI (selectivity index) [CC50/IC50] [1]: 1.14

O=C(CSc1nc2c(c(=O)[nH]1)CCCC2)NNC(=O)c1ccc([N+](=O)[O-])cc1 [Compound 18c, 4-Nitro-N'-(2-((4-oxo-3,4,5,6,7,8-hexahydroquinazolin-2-yl)thio)acetyl)benzohydrazide]
SI (selectivity index) [CC50/IC50] [1]: 10.67 | inhibition at 62.5 µM [2]: 28.9 ± 10.2% | inhibition at 125 µM [2]: 44.4 ± 3.87%

O=C(CSc1nc2ccccc2c(=O)[nH]1)NNC(=O)c1ccccc1 [Compound 17a, N'-(2-((4-Oxo-3,4-dihydroquinazolin-2-yl)thio)acetyl)benzohydrazide]
SI (selectivity index) [CC50/IC50] [1]: 0.59

O=C(CSc1nc2ccccc2c(=O)[nH]1)NNC(=O)c1ccc(Cl)cc1 [Compound 17f, 4-Chloro-N'-(2-((4-oxo-3,4-dihydroquinazolin-2-yl)thio)acetyl)benzohydrazide]
SI (selectivity index) [CC50/IC50] [1]: 4.3

O=C(CSc1nc2ccccc2c(=O)[nH]1)Nc1ccc(C(=O)O)cc1 [Compound 11c, 4-(2-((4-Oxo-3,4-dihydroquinazolin-2-yl)thio)acetamido)benzoic acid]
SI (selectivity index) [CC50/IC50] [1]: 5.6

O=C(CSc1nc2ccccc2c(=O)[nH]1)Nc1cccc(C(=O)O)c1 [Compound 11b, 3-(2-((4-Oxo-3,4-dihydroquinazolin-2-yl)thio)acetamido)benzoic acid]
SI (selectivity index) [CC50/IC50] [1]: 4.9

O=C(CSc1nc2ccccc2c(=O)[nH]1)NNC(=O)c1ccccc1Br [Compound 17g, 2-Bromo-N'-(2-((4-oxo-3,4-dihydroquinazolin-2-yl)thio)acetyl)benzohydrazide]
SI (selectivity index) [CC50/IC50] [1]: 8.64 | inhibition at 62.5 µM [2]: 26.7 ± 6.65% | inhibition at 125 µM [2]: 29.6 ± 8.3%

COc1ccccc1C(=O)NNC(=O)CSc1nc2ccccc2c(=O)[nH]1 [Compound 17d, 2-Methoxy-N'-(2-((4-oxo-3,4-dihydroquinazolin-2-yl)thio)acetyl)benzohydrazide]
SI (selectivity index) [CC50/IC50] [1]: 0.4

O=C(CSc1nc2ccccc2c(=O)[nH]1)NNC(=O)c1ccc([N+](=O)[O-])cc1 [Compound 17c, 4-Nitro-N'-(2-((4-oxo-3,4-dihydroquinazolin-2-yl)thio)acetyl)benzohydrazide]
SI (selectivity index) [CC50/IC50] [1]: 2.61

O=C(CSc1nc2c(c(=O)[nH]1)CCCC2)Nc1ccc(C(=O)O)cc1 [Compound 12c, 4-(2-((4-Oxo-3,4,5,6,7,8-hexahydroquinazolin-2-yl)thio)acetamido)benzoic acid]
SI (selectivity index) [CC50/IC50] [1]: 0.63

COc1ccccc1C(=O)NNC(=O)CSc1nc2c(c(=O)[nH]1)CCCC2 [Compound 18d, 2-Methoxy-N'-(2-((4-oxo-3,4,5,6,7,8-hexahydroquinazolin-2-yl)thio)acetyl)benzohydrazide]
SI (selectivity index) [CC50/IC50] [1]: 2.95

Cc1ccc(C(=O)NNC(=O)CSc2nc3c(c(=O)[nH]2)CCCC3)cc1 [Compound 18b, 4-Methyl-N'-(2-((4-oxo-3,4,5,6,7,8-hexahydroquinazolin-2-yl)thio)acetyl)benzohydrazide]
SI (selectivity index) [CC50/IC50] [1]: 4.43
